Like-named read-outs stand apart in the source and are kept apart here.
How the values were obtained:
[1] = tested on: 3β-hydroxysterol synthesis (cholesterol biosynthesis); experiment: Test B. In Vivo Cholesterol Biosynthesis Inhibition Test; conditions: Rattus norvegicus, ip, 1 h, read-out: ED50 (inhibition of 3β-hydroxysterol synthesis)
Description: Test B. In Vivo Cholesterol Biosynthesis Inhibition Test: In vivo studies utilize male Wistar Royal Hart rats weighing 150±20 g. which have been kept for 7-10 days on an altered light cycle (6:30 A.M.-6:30 P.M. dark) housed two per cage and fed powdered Purina Rat Chow and water ad libitum. Three hours before the diurnal maximum of cholesterol synthesis at mid-dark, the rats are administered the test substance (e.g., 0.01-20 mg./kg. body weight) dissolved or as a suspension in 0.5% carboxymethyl-cellulose in a volume of 1 ml./100 g. body weight. Controls receive vehicle alone. One hour after receiving the test substance, the rats are injected intraperitoneally with about 25 μCi/100 g. body weight of sodium [1-^14 C]acetate 1-3 mCi/mmol. Two hours after mid-dark, blood samples are obtained under sodium hexobarbital anesthesia, and the serum is separated by centrifugation. […] The [^14 C]digitonides are then counted by liquid scintillation spectrometry. […] Inhibition of 3β-hydroxysterol synthesis is calculated from the reduction in the nCi of 3β-hydroxysterols formed from test groups compared to controls.

HMG-CoA reductase = molecular target: T1, HMG-CoA reductase (Rattus norvegicus, UniProt P51639); experiment: Test A. In Vitro Microsomal Assay of HMG-CoA Reductase Inhibition; assay type: biochemical; conditions: rat liver microsomal suspensions, [14C]HMG-CoA substrate; test concentrations 0.05-1000 μmolar; read-out: IC50 (concentration calculated to produce a 50% inhibition of HMG-CoA reductase activity)
T1 construct: rat liver microsomal suspensions, freshly prepared from male Sprague-Dawley rats; from tissue; host or cells: rat liver microsomes (male Sprague-Dawley, 150-225 g)
T1 sequence (P51639 1-887): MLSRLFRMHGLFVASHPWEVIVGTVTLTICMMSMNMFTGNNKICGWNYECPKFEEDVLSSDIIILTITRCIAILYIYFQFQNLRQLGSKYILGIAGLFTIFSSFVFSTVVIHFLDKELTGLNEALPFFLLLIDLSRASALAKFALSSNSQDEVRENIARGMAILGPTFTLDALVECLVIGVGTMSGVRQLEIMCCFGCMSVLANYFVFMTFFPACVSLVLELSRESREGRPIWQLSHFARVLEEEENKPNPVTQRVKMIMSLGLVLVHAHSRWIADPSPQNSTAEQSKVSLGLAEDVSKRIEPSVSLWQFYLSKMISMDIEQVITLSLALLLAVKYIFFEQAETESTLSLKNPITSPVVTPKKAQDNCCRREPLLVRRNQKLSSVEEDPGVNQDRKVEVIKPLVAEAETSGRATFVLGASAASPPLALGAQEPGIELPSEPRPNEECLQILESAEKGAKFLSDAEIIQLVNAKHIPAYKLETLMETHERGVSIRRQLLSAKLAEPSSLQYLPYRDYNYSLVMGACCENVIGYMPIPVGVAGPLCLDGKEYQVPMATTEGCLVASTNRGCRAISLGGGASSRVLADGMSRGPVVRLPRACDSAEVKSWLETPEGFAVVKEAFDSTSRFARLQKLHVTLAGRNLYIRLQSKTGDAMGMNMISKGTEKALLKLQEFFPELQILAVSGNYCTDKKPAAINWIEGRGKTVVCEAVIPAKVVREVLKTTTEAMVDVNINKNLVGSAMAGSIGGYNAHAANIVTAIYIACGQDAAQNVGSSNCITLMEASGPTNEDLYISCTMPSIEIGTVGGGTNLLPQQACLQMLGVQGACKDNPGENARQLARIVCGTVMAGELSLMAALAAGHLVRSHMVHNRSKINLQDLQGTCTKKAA
Description: Test A. In Vitro Microsomal Assay of HMG-CoA Reductase Inhibition:
200 μl. aliquots (1.08-1.50 mg./ml.) of rat liver microsomal suspensions, freshly prepared from male Sprague-Dawley rats (150-225 g. body weight), in Buffer A with 10 mmol. dithiothreitol are incubated with 10 μl. of a solution of the test substance in dimethylacetamide and assayed for HMG-CoA reductase activity as described in Ackerman et al., J. Lipid Res. 18, 408-413 (1977). In the assay the microsomes are the source of the HMG-CoA reductase enzyme which catalyzes the reduction of HMG-CoA to mevalonate. The assay employs a chloroform extraction or a Dowex® 1X8 (200-400 mesh, formate form) ion exchange column to separate the product, [^14 C]mevalonolactone, formed by the HMG-CoA reductase reduction of the substrate, [^14 C]HMG-CoA. [^3 H]mevalonolactone is added as an internal reference. Inhibition of HMG-CoA reductase is calculated from the decrease in specific activity ([^14 C/^3 H]mevalonate) of test groups compared to controls.
IC50 is the concentration of the test substance in the assay system calculated to produce a 50% inhibition of HMG-CoA reductase activity. The tests are run at concentrations of test substance between 0.05 and 1000 μmolar.

[2] = male Wistar Royal Hart rats, in 0.5% carboxymethyl-cellulose, sodium [1-14C]acetate i.p. one hour after test substance, serum

IC50 (HMG-CoA reductase) [nM] | SMILES | ED50 [1, 2] [mg/kg] | ED50 [1] [mg/kg]
410 | CCOC(=O)C[C@H](O)C[C@H](O)/C=C/c1c(C(C)C)nc2ccccc2c1-c1ccc(F)cc1 (relative stereo) [Example 3C] | 0.49 | –
– | CC[C@H](C)C(=O)O[C@H]1CCC=C2C=C[C@H](C)[C@H](CC[C@@H]3C[C@@H](O)CC(=O)O3)[C@H]21 [Compactin, reference compound] | 3.5 | –
530 | CC(C)c1nc2ccccc2c(-c2ccc(F)cc2)c1/C=C/C(O)CC(O)CC(=O)O (stereo not drawn) [Example 4] | > 1 | –
– | CC[C@H](C)C(=O)O[C@H]1C[C@@H](C)C=C2C=C[C@H](C)[C@H](CC[C@@H]3C[C@@H](O)CC(=O)O3)[C@H]21 [Mevinolin, reference compound] | – | 0.41

Source: patent US5753675A, “Quinoline analogs of mevalonolactone and derivatives thereof” (Novartis Pharmaceuticals Corporation, priority 1990, dated 1998)
